Experimental data as given in ChEMBL document CHEMBL1139145, “Inhibition of cancer cell adhesion by heterochiral Pro-containing RGD mimetics” (Bioorg Med Chem Lett, 2007).
pIC50: −log10 of the molar value. Residues, ends and D or L forms follow the SMILES beside them.

target: Integrin alpha-V/beta-3 (Homo sapiens, UniProt P05106+P06756); assay: Inhibition of integrin alpha-v-beta-3 receptor-mediated human SK-MEL-24 cell adhesion to fibronectin by fluorimetry; assay type: protein-complex assay
Sequence (P05106 27-788 limits assumed): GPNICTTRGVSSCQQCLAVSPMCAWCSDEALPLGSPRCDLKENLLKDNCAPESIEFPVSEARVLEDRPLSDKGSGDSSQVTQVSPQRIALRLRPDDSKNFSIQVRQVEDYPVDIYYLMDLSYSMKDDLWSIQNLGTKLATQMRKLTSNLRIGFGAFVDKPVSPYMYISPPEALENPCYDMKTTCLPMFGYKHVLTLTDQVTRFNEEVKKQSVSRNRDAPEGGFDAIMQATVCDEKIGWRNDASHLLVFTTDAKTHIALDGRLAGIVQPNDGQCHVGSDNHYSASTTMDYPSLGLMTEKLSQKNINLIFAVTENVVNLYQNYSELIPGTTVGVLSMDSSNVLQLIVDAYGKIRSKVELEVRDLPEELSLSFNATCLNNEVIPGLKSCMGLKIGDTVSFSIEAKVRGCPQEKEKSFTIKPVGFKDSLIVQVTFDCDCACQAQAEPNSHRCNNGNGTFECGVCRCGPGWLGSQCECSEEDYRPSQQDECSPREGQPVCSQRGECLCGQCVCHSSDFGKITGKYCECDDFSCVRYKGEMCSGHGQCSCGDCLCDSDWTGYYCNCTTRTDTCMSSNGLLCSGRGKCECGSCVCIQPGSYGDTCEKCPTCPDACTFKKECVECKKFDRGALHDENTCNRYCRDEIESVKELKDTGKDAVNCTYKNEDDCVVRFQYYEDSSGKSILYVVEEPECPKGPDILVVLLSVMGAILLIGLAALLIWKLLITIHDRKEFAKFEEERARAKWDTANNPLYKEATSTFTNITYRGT
Sequence (P06756 31-889 limits assumed): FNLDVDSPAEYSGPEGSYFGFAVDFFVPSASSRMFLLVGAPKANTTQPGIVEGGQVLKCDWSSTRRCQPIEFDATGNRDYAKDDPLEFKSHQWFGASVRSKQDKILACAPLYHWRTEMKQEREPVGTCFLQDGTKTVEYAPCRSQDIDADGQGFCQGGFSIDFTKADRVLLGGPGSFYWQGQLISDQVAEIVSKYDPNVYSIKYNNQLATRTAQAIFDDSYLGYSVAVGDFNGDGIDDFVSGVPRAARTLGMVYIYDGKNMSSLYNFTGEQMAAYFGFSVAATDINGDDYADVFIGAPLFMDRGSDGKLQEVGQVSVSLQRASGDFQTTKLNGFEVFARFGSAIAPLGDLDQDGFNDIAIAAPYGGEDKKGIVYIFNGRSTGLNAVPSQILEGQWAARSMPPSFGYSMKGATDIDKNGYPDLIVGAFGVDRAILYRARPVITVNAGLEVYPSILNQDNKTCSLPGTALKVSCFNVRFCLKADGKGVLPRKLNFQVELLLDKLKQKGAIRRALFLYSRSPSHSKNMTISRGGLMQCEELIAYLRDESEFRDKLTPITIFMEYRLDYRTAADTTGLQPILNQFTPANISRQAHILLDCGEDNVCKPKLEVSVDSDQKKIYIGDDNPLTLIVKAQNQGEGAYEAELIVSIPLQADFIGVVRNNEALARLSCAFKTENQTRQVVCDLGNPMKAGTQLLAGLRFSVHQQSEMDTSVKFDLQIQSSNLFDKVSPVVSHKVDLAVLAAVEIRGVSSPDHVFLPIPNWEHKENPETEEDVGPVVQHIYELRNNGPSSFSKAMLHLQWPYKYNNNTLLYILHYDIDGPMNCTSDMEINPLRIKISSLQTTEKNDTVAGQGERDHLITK
Sequence (P06756 891-1048 limits assumed): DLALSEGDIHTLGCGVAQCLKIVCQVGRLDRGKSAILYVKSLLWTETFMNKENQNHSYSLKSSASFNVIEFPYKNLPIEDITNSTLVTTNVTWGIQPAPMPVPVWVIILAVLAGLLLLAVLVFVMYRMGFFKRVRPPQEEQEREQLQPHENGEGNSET

First: Cc1ccc(S(=O)(=O)N[C@@H](CCCN=C(N)N)C(=O)N2CCC[C@@H]2C(=O)N[C@@H](CC(=O)O)C(=O)NCc2ccccc2)cc1
Second: Cc1ccc(S(=O)(=O)N[C@@H](CCCNC(=N)N)C(=O)N2CCC[C@H]2C(=O)N[C@@H](CC(=O)O)C(=O)NCc2ccccc2)cc1
The pIC50 of the first is 2.82 log units higher: 6.82 for the first, 4.00 for the second.

First: N=C(N)NCCC(=O)N1CCC[C@@H]1C(=O)N[C@@H](CC(=O)O)C(=O)NCc1ccccc1
Second: N=C(N)NCCCC(=O)N1CCC[C@@H]1C(=O)N[C@@H](CC(=O)O)C(=O)NCc1ccccc1
The pIC50 of the first is lower: < 4.00 for the first, 7.59 for the second. The second is the more potent here.

Compared with N=C(N)NCCCC(=O)N1CCC[C@@H]1C(=O)N[C@@H](CCC(=O)O)C(=O)NCc1ccccc1, N=C(N)NCCC(=O)N1CCC[C@@H]1C(=O)N[C@@H](CCC(=O)O)C(=O)NCc1ccccc1 is 1.87 log units higher in pIC50: 5.59 for the first, 7.46 for the second. The second is the more potent here.

First: NC(N)=NCCCCC(=O)N1CCC[C@@H]1C(=O)N[C@@H](CC(=O)O)C(=O)NCc1ccccc1
Second: CCCNC(=O)[C@H](CC(=O)O)NC(=O)[C@H]1CCCN1C(=O)CCCN=C(N)N
The pIC50 of the first is 1.06 log units lower: 3.64 for the first, 4.70 for the second. The second is the more potent here.

Going from CC(=O)N[C@@H](CC(=O)O)C(=O)N[C@@H](CCCN=C(N)N)C(=O)NCC(=O)N[C@@H](CC(=O)O)C(=O)N[C@@H](CO)C(=O)O (Ac-DRGDS-OH) to NC(N)=NCCCC(=O)N1CCC[C@@H]1C(=O)NCCC(=O)O, the pIC50 falls from 7.70 to 5.92 (1.78 log units).
